Test results taken from patent US20260226084A1, “DUAL RAF AND TUBULIN INHIBITORS AND METHODS OF USE THEREOF” (Deciphera Pharmaceuticals, LLC, priority 2023, published 2026).
Where two headings read alike, the source gives them in different places.

What was measured:
[1] = molecular target: T1, B-Raf kinase (SEQ ID NO: 1) (Homo sapiens, UniProt P15056); assay: Biochemical Assay for B-Raf (coupled pyruvate kinase/lactate dehydrogenase assay); conditions: 1 mM ATP; read-out: BRAF (inhibition of biochemical activity, IC50)
T1 construct: GST (N); purchased Sigma
T1 sequence (P15056 416-766): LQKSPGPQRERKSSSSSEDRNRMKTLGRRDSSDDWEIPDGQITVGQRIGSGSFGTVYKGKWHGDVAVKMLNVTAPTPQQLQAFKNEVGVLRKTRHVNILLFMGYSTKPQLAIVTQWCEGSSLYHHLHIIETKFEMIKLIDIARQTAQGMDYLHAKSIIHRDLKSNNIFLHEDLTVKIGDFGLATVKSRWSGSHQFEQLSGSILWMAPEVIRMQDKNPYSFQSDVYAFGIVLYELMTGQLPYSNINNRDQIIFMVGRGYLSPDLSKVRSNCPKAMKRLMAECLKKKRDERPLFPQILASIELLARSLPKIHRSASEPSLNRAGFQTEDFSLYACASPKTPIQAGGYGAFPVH

[2] = molecular target: T2, C-Raf kinase (SEQ ID NO: 2) (Homo sapiens, UniProt P04049, Y340D/Y341D); assay: Biochemical Assay for C-Raf (coupled pyruvate kinase/lactate dehydrogenase assay); conditions: 1 mM ATP; read-out: CRAF (inhibition of biochemical activity, IC50)
T2 construct: C-Raf residues 306-end; Y340D, Y341D with; GST (N); purchased Sigma
T2 sequence (P04049 307-648 Y340D/Y341D): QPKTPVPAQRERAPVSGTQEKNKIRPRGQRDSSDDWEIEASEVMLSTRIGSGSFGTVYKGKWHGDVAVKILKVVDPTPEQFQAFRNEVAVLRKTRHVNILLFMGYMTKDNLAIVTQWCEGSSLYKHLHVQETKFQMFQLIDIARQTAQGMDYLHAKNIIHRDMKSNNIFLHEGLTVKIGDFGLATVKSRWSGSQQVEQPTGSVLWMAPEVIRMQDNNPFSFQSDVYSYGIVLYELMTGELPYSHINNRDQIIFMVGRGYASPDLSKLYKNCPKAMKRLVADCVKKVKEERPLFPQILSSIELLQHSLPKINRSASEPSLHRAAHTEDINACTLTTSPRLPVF

MiaPaca-2 cells = assay: MiaPaca-2 Cell Proliferation Assay; assay type: cell-based; conditions: Table 2, read-out: Inhibition of cell proliferation in MiaPaca-2 (IC50 class)
Experimental: Miapaca-2 cells (catalog #CRL-1420) are obtained from the American Type Culture Collect (ATTC, Manassas, VA). Briefly, cells were grown in DMVEM supplemented with 10 characterized fetal bovine serum (Invitrogen, Carlsbad, CA), 2.5% New Zealand sourced horse serum and 1 Penicillin/Streptomycin/L-Glutamine at 37° C., 5 CO2, and 95% humidity. Cells are expanded until reaching 70-95% confluency at which point they are sub-cultured or harvested for assay use. A serial dilution of test compound is dispensed into a 96-well black clear bottom plate in triplicate. Three thousand cells are added per well in 200 μL complete growth medium in the 96-well plate. Plates are incubated for 67 to 72 h at 37° C., 5% CO2, and 95% humidity. At the end of the incubation, 40 μL of a 440 μM solution of resazurin (Sigma, St. Louis, MO) in PBS is added to each well of the plate and plates are incubated for an additional 5 to 6 h at 37° C., 5% CO2, and 95% humidity. Plates are read on a Synergy2 or equivalent reader (Biotek, Winooski VT) using an excitation of 540 nm and an emission of 600 nm. Data is analyzed using Prism software (Graphpad, San Diego, CA) to calculate IC50 values.

HCT-116 cells = assay: HCT-116 Cell Proliferation Assay; assay type: cell-based; conditions: Homo sapiens, HCT-116, HCT-116 cells; Table 2; read-out: Inhibition of cell proliferation in HCT-116 (IC50 class)
Experimental: HCT-116 cells (catalog #CCL-247) are obtained from the American Type Culture Collect (ATCC, Manassas, VA). Briefly, cells are grown in McCoy's 5A supplemented with 10% characterized fetal bovine serum (Invitrogen, Carlsbad, CA) and 1% Penicillin/Streptomycin/L-Glutamine at 37° C., 5% CO2, and 95% humidity. Cells are expanded until reaching 70-95% confluency at which point they are subcultured or harvested for assay use. A serial dilution of test compound is dispensed into a 384-well black clear bottom plate in triplicate. 375 cells are added per well in 50 μL complete growth medium in the 384-well plate. Plates are incubated for 67 to 72 hours at 37° C., 5% CO2, and 95% humidity. At the end of the incubation, 40 μL of a […] solution of resazurin (Sigma, St. Louis, MO) in PBS is added to each well of the plate and plates are incubated for an additional 4 to 5 h at 37° C., 5% CO2, and 95% humidity. Plates are read on a Synergy2 or equivalent reader (Biotek, Winooski, VT) using an excitation of 540 nm and an emission of 600 nm. Data is analyzed using Prism software (Graphpad, San Diego, CA) to calculate IC50 values.

HPAF-II cells = assay: HPAF-II Cell Proliferation Assay; assay type: cell-based; conditions: Homo sapiens, HPAF-II, HPAF-II cells; Table 2; read-out: Inhibition of cell proliferation in HPAF-II (IC50 class)
Experimental: HPAF-II cells (catalog #CRL-1997) are obtained from the American Type Culture Collect (ATCC, Manassas, VA). Briefly, cells are grown in Minimum Essential Media supplemented with 10% characterized fetal bovine serum (Invitrogen, Carlsbad, CA) and 1% Penicillin/Streptomycin/L-Glutamine at 37° C., 5% CO2, and 95% humidity. Cells are expanded until reaching 70-95% confluency at which point they are sub-cultured or harvested for assay use. A serial dilution of test compound is dispensed into a 384-well black clear bottom plate in triplicate. 750 cells are added per well in 50 μL complete growth medium in the 384-well plate. Plates are incubated for 115 to 120 hours at 37° C., 5% CO2, and 95% humidity. At the end of the incubation, 40 μL of a 440 μM solution of resazurin (Sigma, St. Louis, MO) in PBS is added to each well of the plate and plates are incubated for an additional 18 to 24 hours at 37° C., 5% CO2, and 95% humidity. Plates are read on a Synergy2 or equivalent reader (Biotek, Winooski, VT) using an excitation of 540 nm and an emission of 600 nm. Data is analyzed using Prism software (Graphpad, San Diego, CA) to calculate IC50 values.

[3] = Homo sapiens, MIA PaCa-2, MiaPaca-2 cells

SMILES | IC50 [1] [nM] | IC50 [2] [nM] | IC50 (MiaPaca-2 cells; [3]) [nM] | IC50 (HCT-116 cells) [nM] | IC50 (HPAF-II cells) [nM] | IC50 (MiaPaca-2 cells; MiaPaca-2 cells) [nM]
Cc1ccc(NC(=O)c2cc(C#N)cnn2)cc1-c1cc(N[C@H](C)CO)nc(-c2cn[nH]c2)c1 [Example 152] | 100 to 500 | 100 to 500 | < 100 | 100 to 500 | 500 to 1000 | –
Cc1ccc(NC(=O)c2ccc(C(F)F)nc2)cc1-c1ccnc(-c2ccnc(NC(=O)C3CC3)c2)c1 [Example 25] | < 100 | < 100 | 500 to 1000 | 100 to 500 | – | –
COC(=O)Nc1cc(-c2cc(-c3cc(NC(=O)c4ccc(C(F)(F)F)nc4)cnc3C)ccn2)ccn1 [Example 31] | 1000 to 10000 | 100 to 500 | 1000 to 10000 | – | – | –
COCC(=O)Nc1cc(-c2cncc(-c3cc(NC(=O)c4ccc(C(F)F)nc4)ccc3C)n2)ccn1 [Example 89] | 1000 to 10000 | 100 to 500 | 1000 to 10000 | 1000 to 10000 | – | –
COC(=O)Nc1cc(-c2cc(-c3cc(NC(=O)c4ccc(C(F)(F)F)nc4)ccc3C)cc(OCCO)n2)ccn1 [Example 77] | < 100 | < 100 | – | – | – | 1000 to 10000
COC(=O)Nc1cc(-c2cncc(-c3cc(NC(=O)c4ccc(C(F)(F)F)nc4)ccc3C)c2)ccn1 [Example 74] | 100 to 500 | < 100 | 100 to 500 | – | – | –
CC(=O)Nc1cc(-c2cc(-c3cc(NC(=O)c4ccc(C(F)(F)F)nc4)ccc3C)cn(CCO)c2=O)ccn1 [Example 29] | 1000 to 10000 | 1000 to 10000 | 1000 to 10000 | – | – | –
COC(=O)Nc1cc(-c2cc(-c3cc(NC(=O)c4ccc(C(F)(F)F)nc4)c(F)cc3C)nc(C)n2)ccn1 [Example 21] | 1000 to 10000 | 500 to 1000 | < 100 | – | – | –
Cc1ccc(NC(=O)c2ccc(C(F)(F)F)nc2)cc1-c1cncc(-c2cc(N)ncn2)c1 [Example 73] | 500 to 1000 | 500 to 1000 | 1000 to 10000 | – | – | –
COC(=O)Nc1cc(-c2cccc(-c3cc(NC(=O)c4ccc(C(F)(F)F)nc4)cnc3C)c2)ccn1 [Example 32] | 100 to 500 | < 100 | 500 to 1000 | – | – | –
CC(=O)Nc1cc(-c2cc(-c3cc(NC(=O)c4ccc(C(F)(F)F)nc4)ccc3C)nn(C)c2=O)ccn1 [Example 12] | 1000 to 10000 | 1000 to 10000 | 1000 to 10000 | – | – | –
COC(=O)Nc1cc(-c2nccc(-c3cc(NC(=O)c4ccc(C(F)(F)F)nc4)ccc3C)n2)ccn1 [Example 30] | 1000 to 10000 | < 100 | – | – | – | 1000 to 10000
Cc1ccc(NC(=O)c2cc(C(F)(F)F)cnn2)cc1-c1cc(N[C@H](C)CO)nc(-c2c[nH]nc2N)c1 [Example 153] | 100 to 500 | < 100 | 100 to 500 | 100 to 500 | 1000 to 10000 | –
